The target of assay [1] is T1, ERK2 enzyme (Homo sapiens, UniProt P28482).
T1 construct: purchased Life Technologies
Nature of the assay: Inhibition assay of ERK (Z'-LYTE kinase assay, Ser/Thr 3 peptide, 100 μM ATP). As to conditions: in vitro. The assay is classed as biochemical. On the procedure: Example 9: Inhibition Assays of ERK. The inhibition of ERK activity by the compounds disclosed herein was determined using the Z′-LYTE kinase assay kit (Life Technologies) with a Ser/Thr 3 peptide substrate (Life Technologies) according to manufacturer's instructions. […] The IC50 values for the compounds were determined with 3-fold serial dilutions in duplicate. The compounds were first diluted in 1:3 dilutions in 100% DMSO at 100× the desired concentration, and then further diluted (1:25) in 20 mM HEPES buffer (Invitrogen) to make 4× solutions prior to adding to the enzyme solution. The final DMSO concentration in the assay was 1%. Final reaction volume was […] in 384-well plates. Kinase reactions were conducted for 1 hour followed by the assay development reaction (1 hour) in a 384 well plate format (20 μL/well).

Assay [2] deals with LU0009 primary human NSCLC tissues. Briefly: Patient-derived xenograft model of squamous NSCLC: LU0009. The assay is classed as in vivo, human (in BALB/C nude mice). As to conditions: Q2D or 2QW schedules. On the procedure:
(§1) Example 1: Efficacy studies in patient-derived xenograft models of squamous NSCLC. Tumor fragments (2-4 mm in diameter) from stock mice inoculated with LU1868 or LU0009 primary human NSCLC tissues were inoculated subcutaneously into BALB/C nude mice. The mice were stratified into groups when the average tumor size reached about 200 mm^3. […] Tumor volumes were measured twice weekly in two dimensions using a caliper, with volume expressed in mm^3 (mean+/−SEM) using the formula […], where a and b are the long and short diameters of the tumor, respectively.
(§2) Responses were classified as “tumor stasis” if tumors grew ≤10% during the dosing period. Many SCC patient-derived xenograft models retain comorbid properties of the original tumors from which they were derived, such as induction of cachexia and spontaneous ulceration, that negatively impact the physiology of the host animal and reduce tolerability to exogenous agents, such as therapeutic drugs. […] Dosing holidays were necessary during periods when the mouse had lost ≥10% of body weight until the weight of the mouse returned to baseline. […] Where TGI was 70-85% and no doses were missed, activity was classified as “borderline”, and any TGI levels below 70% were classified as “resistant”.
A general note: Xenograft models place foreign cells or tissue in a host animal.

For assay [3], the system named is HN3067 primary human HNSCC tissues. Nature of the assay: Patient-derived xenograft model of HNSCC: HN3067. The assay is classed as in vivo, human (in BALB/C nude mice). An excerpt: Example 6: Efficacy studies in patient-derived xenograft models of HNSCC. The general procedure outline in Example 1 was followed. […] Dosing was discontinued to observe tumor regrowth.

Assay [4] concerns HN1391 primary human HNSCC tissues. Nature of the assay: Patient-derived xenograft model of HNSCC: HN1391. The assay is classed as in vivo, human (in BALB/C nude mice). As to the method: Example 5: Efficacy studies in patient-derived xenograft modes of HNSCC. The general procedure outline in Example 1 was followed. […] Dosing was discontinued to observe tumor regrowth, then restarted on the same dosing schedule on day 56. […] This activity was maintained for 25 days on treatment at either 120 mg/kg Q2D or 300 mg/kg QW. When dosing was discontinued, tumor stasis was maintained for 10-20 days, but eventually all of the tumors regrew. Regrowth was allowed to proceed for 2-3 weeks, until some individual tumors exceeded 1600 mm^3, then therapy was restarted. Strikingly, all of the retreated tumors regressed, decreasing in size by 27-66% in the subsequent 35 days.

In assay [5] the test system is HNSCC patient-derived xenograft models exhibiting CCND1 amplification. Nature of the assay: Efficacy studies in patient-derived xenograft models of HNSCC (Example 14). The assay is classed as in vivo, human (in BALB/C nude mice). As to conditions: 300-350 mg/kg QW PO. An excerpt:
Example 14: Efficacy studies in patient-derived xenograft models of HNSCC. The general procedure outline in Example 1 was followed.

In assay [6] the test system is HN2221 primary human HNSCC tissues. Nature of the assay: Patient-derived xenograft model of HNSCC: HN2221. The assay is classed as in vivo, human (in BALB/C nude mice). Particulars: weekly dosing. As to the method: (§3) Example 3: Efficacy studies in patient-derived xenograft models of HNSCC. The general procedure outline in Example 1 was followed. […] Gene copy number and gene expression were assessed as described in Example 1.

For assay [7], the system named is ES0215 primary human ESCC tissues. Briefly: Patient-derived xenograft model of ESCC: ES0215. The format is in vivo, human (in BALB/C nude mice). Particulars: Q2D or QW schedules. On the procedure:
(§4) Example 2: Efficacy studies in patient-derived xenograft models of ESCC. The general procedure outline in Example 1 was followed. […] Gene copy number and gene expression were assessed as described in Example 1.

Assay [8] has as its system HN0635 primary human HNSCC tissues. Briefly: Patient-derived xenograft model of HNSCC: HN0635. As to conditions: Q2D or QW schedules. The assay is classed as in vivo, human (in BALB/C nude mice). On the procedure:
as §3

Assay [9] has as its system ES0191 primary human ESCC tissues. Briefly: Patient-derived xenograft model of ESCC: ES0191. As to conditions: weekly schedule. The assay is classed as in vivo, human (in BALB/C nude mice). On the procedure:
as §4

For assay [10], the system named is LU1868 primary human NSCLC tissues. Briefly: Patient-derived xenograft model of squamous NSCLC: LU1868. The assay is classed as in vivo, human (in BALB/C nude mice). As to conditions: daily and Q2D dosing schedules. On the procedure:
as §1, §2

For assay [11], the system named is A375 NRAS Q61R. Briefly: Models of clinical B-Raf and MEK inhibitor resistance, CellTiter-Glo 72 hours: A375 NRAS Q61R. The format is cell-based. Particulars: Homo sapiens, A-375. On the procedure:
(§5) Example 11: Efficacy studies in models of clinical B-Raf and MEK inhibitor resistance. Human melanoma cell lines were obtained from ATCC or DSMZ (e.g., A375, MM383 BRAF V600E and MM127 NRAS Q61R). A375 cells were engineered to overexpress LacZ, BRAF V600E (BRAF V600E amp), or the NRAS mutant NRAS Q61R. The cell lines were grown to confluency, washed with Tumor Cell Media (DMEM+10% FBS or IMDM+20% FBS), and plated in 90 μL Tumor Cell Media at 5,000-10,000 cells/well. […] Plates were incubated for 72 hours at 37° C. and 5% CO2. A volume of 100 μL of CellTiter-Glo® reagent was added to each well and plates were mixed for 2 minutes on an orbital shaker. The plates were allowed to stand at room temperature for 20 minutes before measuring the luminescent signal of each well.

Assay [12] deals with A375 V600E amp (BRAF V600E amp). Briefly: Models of clinical B-Raf and MEK inhibitor resistance, CellTiter-Glo 72 hours: A375 V600E amp. Particulars: Homo sapiens, A-375. The format is cell-based. On the procedure: as §5, with “Human” for “Example 11: Efficacy studies in models of clinical B-Raf and MEK inhibitor resistance. Human”
For orientation: In ATP-based viability assays light output follows the ATP content of the culture.

Assay [13] concerns A375 LacZ. Briefly: Models of clinical B-Raf and MEK inhibitor resistance, CellTiter-Glo 72 hours: A375 LacZ. The assay is classed as cell-based. As to conditions: Homo sapiens, A-375. As to the method:
as §5

Each structure is given as a SMILES string. pIC50: −log10 of the molar value.

As a reminder, the pIC50 is −log10 of the IC50, conventionally taken in molar units.

T1 sequence (P28482 whole entry): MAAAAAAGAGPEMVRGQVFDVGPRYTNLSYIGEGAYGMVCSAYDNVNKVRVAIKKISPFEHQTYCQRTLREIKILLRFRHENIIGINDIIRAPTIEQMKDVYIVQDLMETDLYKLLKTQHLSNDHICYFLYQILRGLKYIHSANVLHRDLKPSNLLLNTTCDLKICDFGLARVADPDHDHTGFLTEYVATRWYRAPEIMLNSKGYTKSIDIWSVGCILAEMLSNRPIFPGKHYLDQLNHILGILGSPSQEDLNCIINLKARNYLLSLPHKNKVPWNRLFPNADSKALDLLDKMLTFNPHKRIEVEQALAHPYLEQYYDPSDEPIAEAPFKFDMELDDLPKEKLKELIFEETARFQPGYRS

With `Cc1ccc(-c2n[nH]c3cc4c(cc23)CN([C@@H]2CCCN(Cc3ccc(F)cc3F)C2)C(=O)N4)cn1` [Compound 284], the pIC50 in [1] is more than 6.30.

With `Cn1cc(-c2n[nH]c3cc4c(cc23)CN([C@@H]2CCCN(Cc3ccccc3)C2)C(=O)N4)cn1` [Compound 285], the pIC50 in [1] was more than 6.30.

Turning to `Cc1cc(-c2n[nH]c3cc4[nH]c(=O)c([C@H](C)c5ccc(F)cc5)cc4cc23)ccn1` [Compound 288], in assay [1], the pIC50 was more than 6.30.

In turn, `Cc1cc(-c2n[nH]c3cc4c(cc23)CN([C@@H]2CCCN(Cc3sccc3F)C2)C(=O)N4)ccn1` [Compound 291] showed a pIC50 in [1] of more than 6.30.

`Cc1ncc(-c2n[nH]c3cc4c(cc23)CN([C@@H]2CCCN(Cc3ccccc3)C2)C(=O)N4)cn1` [Compound 292]: the pIC50 in [1] is more than 6.30.

Regarding `Cc1ncc(-c2n[nH]c3cc4c(cc23)CN([C@@H]2CCCN(Cc3ccc(F)cc3F)C2)C(=O)N4)cn1` [Compound 293], the pIC50 in assay [1] was more than 6.30.

For `Cc1cc(-c2n[nH]c3cc4c(cc23)CN([C@@H]2CN(CC(F)(F)F)C[C@H]2c2ccccc2)C(=O)N4)ccn1` [Compound 304], the pIC50 in [1] was more than 6.30.

Turning to `CC(c1ccccc1)c1cc2cc3c(-c4ccc(N5CCN(C)CC5)nc4)n[nH]c3cc2[nH]c1=O` (centres unmarked) [Compound 316], in assay [1], the pIC50 is more than 6.30.

Regarding `CC(c1ccccc1)c1cc2cc3c(-c4ccnc(N5CCN(C)CC5)c4)n[nH]c3cc2[nH]c1=O` (centres unmarked) [Compound 318], in [1], the negative logarithm of the IC50 (pIC50) was more than 6.30.

For `CC(c1ccccc1)c1cc2cc3c(-c4ccnc(N5CCOCC5)c4)n[nH]c3cc2[nH]c1=O` (centres unmarked) [Compound 325], the pIC50 in [1] was more than 6.30.

With `CC(c1ccccc1)c1cc2cc3c(-c4ccncc4)n[nH]c3cc2[nH]c1=O` (centres unmarked) [Compound 326], in assay [1], the pIC50 was more than 6.30.

`Cc1cc(-c2n[nH]c3cc4[nH]c(=O)c(C5CCCN(Cc6ccccc6)C5)cc4cc23)ccn1` (centres unmarked) [Compound 332] had a pIC50 in [1] of more than 6.30.

In assay [1], `CC(c1ccccc1)c1cc2cc3c(-c4cnn(C)c4)n[nH]c3cc2[nH]c1=O` (centres unmarked) [Compound 333] had a pIC50 of more than 6.30.

In turn, `CC(c1ccccc1)c1cc2cc3c(NC4CCOCC4)n[nH]c3cc2[nH]c1=O` (centres unmarked) [Compound 338] showed a pIC50 in [1] of more than 6.30.

For `Cc1cc(-c2n[nH]c3cc4c(cc23)CN([C@@H]2CN(CC(F)(F)F)C[C@H]2c2ccccc2)C(=O)N4)cc(C)n1` [Compound 339], the pIC50 in assay [1] is more than 6.30.

Molecule `C[C@H](c1ccccc1)c1cc2cc3c(NC4CCOCC4)n[nH]c3cc2[nH]c1=O` [Compound 357] had a pIC50 in [1] of more than 6.30.

As to `COc1ncc(-c2n[nH]c3cc4[nH]c(=O)c(C5CCCN(Cc6ccccc6)C5)cc4cc23)cn1` (centres unmarked) [Compound 364], in [1], the pIC50 is more than 6.30.

On to `O=C1Nc2cc3[nH]nc(-c4ccncc4)c3cc2CN1Cc1ccccc1` [KO-947], for which the “Tumor response (tumor volume)” value in assay [2] is on record as “only modest inhibition of tumor growth”; in assay [3] (all six animals, 120 mg/kg Q2D or 300 mg/kg QW, 40 days), “robust tumor regression”; in assay [6], “only modest inhibition of tumor growth”; in assay [7], “only modest inhibition of tumor growth”; in assay [9], “tumor regression was initially seen on a weekly schedule, with some regrowth late in the experiment resulting ultimately in tumor stasis”; in [10], “tumor regression”. In assay [3] (sixty days after dosing was discontinued), the “Animals with no evidence of remaining viable tumor” value is 4 of 6. Further, the “Tumor response when treatment was initiated” value in assay [4] (120 mg/kg Q2D or 300 mg/kg QW, maintained for 25 days) is “regression and tumor stasis”. Moreover, the “Time tumor stasis was maintained after dosing was discontinued” value in [4] (after 25 days on treatment) was in the range of 10 to 20 days. The “Decrease in size of retreated tumors” value in assay [4] (therapy restarted on day 56, subsequent 35 days) is reported as 27-66%. Moreover, the “Models responsive to treatment” value in [5] was “Four out of six”. Moreover, the “Animals with tumor regression” value in assay [8] is recorded as 5 of 6.

As to `CC(=O)Nc1cccc(-n2c(=O)n(C3CC3)c(=O)c3c(Nc4ccc(I)cc4F)n(C)c(=O)c(C)c32)c1` [Trametinib], the results for the pIC50 in assay [11], in [12] and in assay [13] were 7.11, 6.52 and 8.15, respectively.

Consider `CCCS(=O)(=O)Nc1ccc(F)c(C(=O)c2c[nH]c3ncc(-c4ccc(Cl)cc4)cc23)c1F` [Vemurafenib], for which the negative-log IC50 (pIC50) in assay [11] was less than 5.00; in [12], less than 5.00; in [13], 5.38.

The values above are taken from US20190192517A1, “TREATMENT OF SQUAMOUS CELL CARCINOMAS WITH INHIBITORS OF ERK” (Kura Oncology, Inc., priority 2016, published 2019).
